“Also recorded” adds a separate entry of the source.
Experiments:
pPolII = experiment: Immunohistochemistry H-score in paired tumor biopsies, pPolII; format: in vivo, human
Method: (§1) Per-protocol ctDNA samples were taken in Module 1B-1 at screening, C1D1, C2D1 and on D1 of alternating cycles from Cycle 3; in Module 2A at screening, C1D1 and at either C2D1 (240 mg) or C2D15 (360 mg) for mutational analysis[24],[33], (Supplementary Information). pPolII in lymphocytes and pPolII and pCDK1/2/3 in core needle tissue samples from patients recruited to the paired biopsy cohort were evaluated for on-target pharmacodynamic analyses. […]
(§2) pharmacodynamic effects in tumor tissue. […]
(§3) variability in H-score was observed between sections. […]
(§4) H-scores for pre-dose and on-study biopsies and summary statistics for the observed H-score when stained for pCDK1/2/3 and pPolII are shown in Supplementary Table 11. Significance was calculated using Student’s one-tailed paired t-test, where the alternative hypothesis was that on-study samples had

pCDK1/2/3 = experiment: Immunohistochemistry H-score in paired tumor biopsies, pCDK1/2/3; format: in vivo, human
Method: as §1, §2, §3, §4

[1] = system: human peripheral blood lymphocytes; parameters: method as in ref IB; settings: ref IB; cited from earlier work

CC(C)c1cnn2c(NCc3ccccc3)cc(NC[C@H]3CCNC[C@@H]3O)nc12 [samuraciclib, Samuraciclib]
pPolII H-Score, On study, average (pPolII; Average 240mg OD patients, pre-dose 239): 208 | pPolII H-Score, On study, average (pPolII; Average 360mg OD patients, pre-dose 277): 271 | pPolII H-Score, On study, average (pPolII; Average all patients, pre-dose 258): 240 | pPolII H-Score, On study (pPolII; HR+ breast cancer, breast biopsy, 360 mg OD, pre-dose 286): 271 | pPolII H-Score, On study (pPolII; HR+ breast cancer, liver biopsy, 240 mg OD, pre-dose 243): 225 | pPolII H-Score, On study (pPolII; HR+ breast cancer, liver biopsy, 240 mg OD, pre-dose 251): 232 | pPolII H-Score, On study (pPolII; HR+ breast cancer, liver biopsy, 360 mg OD, pre-dose 271): 262 | pPolII H-Score, On study (pPolII; HR+ breast cancer, liver biopsy, 360 mg OD, pre-dose 273): 281 | pPolII H-Score, On study (pPolII; Rhabdomyosarcoma, axilla biopsy, 240 mg OD, pre-dose 223): 167 | pPolII in tumor tissue (pPolII; paired biopsy cohort): reduction of phosphorylated RNA polymerase II; also recorded: A reduction in pPolII was also seen in tumor tissue | pCDK1/2/3 H-Score, On study, average (pCDK1/2/3; Average 240mg OD patients, pre-dose 169): 102 | pCDK1/2/3 H-Score, On study, average (pCDK1/2/3; Average 360mg OD patients, pre-dose 119): 118 | pCDK1/2/3 H-Score, On study, average (pCDK1/2/3; Average all patients, pre-dose 144): 110 | pCDK1/2/3 H-Score, On study (pCDK1/2/3; HR+ breast cancer, breast biopsy, 360 mg OD, pre-dose 178): 112 | pCDK1/2/3 H-Score, On study (pCDK1/2/3; HR+ breast cancer, liver biopsy, 240 mg OD, pre-dose 125): 90 | pCDK1/2/3 H-Score, On study (pCDK1/2/3; HR+ breast cancer, liver biopsy, 240 mg OD, pre-dose 234): 151 | pCDK1/2/3 H-Score, On study (pCDK1/2/3; HR+ breast cancer, liver biopsy, 360 mg OD, pre-dose 89): 128 | pCDK1/2/3 H-Score, On study (pCDK1/2/3; HR+ breast cancer, liver biopsy, 360 mg OD, pre-dose 91): 113 | pCDK1/2/3 H-Score, On study (pCDK1/2/3; Rhabdomyosarcoma, axilla biopsy, 240 mg OD, pre-dose 148): 64 | Levels of pCDK1/2/3 in tumors (pCDK1/2/3; paired biopsy cohort): showed a reduction, although this did not reach statistical significance | Genotoxicity in micronucleus tests [1]: Low potential for genotoxicity

From paper PMC10366102, “Dose escalation and expansion cohorts in patients with advanced breast cancer in a Phase I study of the CDK7-inhibitor samuraciclib” (Nature Communications, 2023)
